In patent publication US8476265B2, “Compounds-801” (AstraZeneca AB, priority 2010, dated 2013):

Columns and labels:
[1] = biological target: T1, human muscarinic acetylcholine M3 receptor (Homo sapiens, UniProt P20309); assay: Muscarinic 3 receptor binding assay ([3H]NMS competition, SPA), single concentration 1 μM; details: 1 μM compound; % inhibition specific [3H]-NMS binding
T1 construct: expressed in transfected cells; host or cells: CHO-K1 (Chinese Hamster Ovary) cell membranes
Method in brief: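 CHO-K1 membranes expressing human M3 on SPA beads, competition with 0.1 nM [3H]NMS (quarter Kd) in 20 mM HEPES pH 7.4, 5 mM MgCl2, 0.1% BSA, 1% DMSO; compound at 1 μM. 16 h at room temperature. Value is % inhibition of specific binding, non-specific defined with 1 μM atropine.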

[2] = biological target: T1, human muscarinic acetylcholine M3 receptor; assay: Muscarinic 3 receptor binding assay ([3H]NMS competition, SPA), pIC50; details: [3H]NMS 0.1 nM, CHO-K1 cell membranes expressing human M3 receptor
Method in brief: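 SPA beads precoated with human M3-expressing CHO-K1 membranes were incubated 16 h at room temperature with serially diluted compound and 0.1 nM [3H]NMS (pH 7.4 HEPES buffer, MgCl2, BSA, 1% DMSO). Atropine (1 μM) defined non-specific binding; pIC50 is the 50% reduction in specific binding.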

[3] = biological target: T2, Adrenergic β2 (Homo sapiens, UniProt P07550); assay: Adrenergic β2 mediated cAMP production in H292 cells, single concentration 1 μM; type: cell-based; details: NCI-H292, 1 μM compound, cAMP as percentage of the maximum response generated by 1E-07M formoterol, read-out: β2 % effect @1 uM
T2 construct: Adherent H292 cells are removed from tissue culture flasks by treatment with Accutase™ cell detachment solution; endogenous in cells; host or cells: H292 cells
Method in brief: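 H292 cells pretreated with rolipram (300 μM final) 10 min, then compound at 1 μM final, 1% DMSO, 60 min at room temperature in HBSS/10 mM HEPES pH 7.4/5 mM glucose. Lysate cAMP quantified by AlphaScreen against a standard curve, as % of maximal response to 1E-07M formoterol.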

[4] = biological target: T2, Adrenergic β2; assay: Adrenergic β2 mediated cAMP production in H292 cells (AlphaScreen), concentration response; type: cell-based; details: for EC50: 60 min, 300 μM rolipram, read-out: β2 pEC50 (converted); for β2 Intrinsic Activity: fraction relative to the maximum activity determined for formoterol
Method in brief: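 Intracellular cAMP in lysates read by AlphaScreen, calibrated with cAMP standards; curves fitted for pEC50, with intrinsic activity as a fraction of formoterol's maximum. Agonist exposure 60 min at room temperature after 10 min rolipram (300 μM final), 1% DMSO, HEPES-buffered HBSS pH 7.4.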

T2 sequence (P07550 whole entry): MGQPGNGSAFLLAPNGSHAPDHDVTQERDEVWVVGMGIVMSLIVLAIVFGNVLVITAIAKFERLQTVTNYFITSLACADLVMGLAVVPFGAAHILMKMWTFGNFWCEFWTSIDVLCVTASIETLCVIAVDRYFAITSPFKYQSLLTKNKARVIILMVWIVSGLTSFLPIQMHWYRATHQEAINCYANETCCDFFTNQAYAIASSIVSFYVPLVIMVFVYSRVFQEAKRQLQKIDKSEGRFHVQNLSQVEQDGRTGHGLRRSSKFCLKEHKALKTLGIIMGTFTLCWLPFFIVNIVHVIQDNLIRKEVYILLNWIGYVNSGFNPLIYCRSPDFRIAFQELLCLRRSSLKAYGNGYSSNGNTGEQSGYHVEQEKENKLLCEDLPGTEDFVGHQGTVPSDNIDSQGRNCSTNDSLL
T1 sequence (P20309 whole entry): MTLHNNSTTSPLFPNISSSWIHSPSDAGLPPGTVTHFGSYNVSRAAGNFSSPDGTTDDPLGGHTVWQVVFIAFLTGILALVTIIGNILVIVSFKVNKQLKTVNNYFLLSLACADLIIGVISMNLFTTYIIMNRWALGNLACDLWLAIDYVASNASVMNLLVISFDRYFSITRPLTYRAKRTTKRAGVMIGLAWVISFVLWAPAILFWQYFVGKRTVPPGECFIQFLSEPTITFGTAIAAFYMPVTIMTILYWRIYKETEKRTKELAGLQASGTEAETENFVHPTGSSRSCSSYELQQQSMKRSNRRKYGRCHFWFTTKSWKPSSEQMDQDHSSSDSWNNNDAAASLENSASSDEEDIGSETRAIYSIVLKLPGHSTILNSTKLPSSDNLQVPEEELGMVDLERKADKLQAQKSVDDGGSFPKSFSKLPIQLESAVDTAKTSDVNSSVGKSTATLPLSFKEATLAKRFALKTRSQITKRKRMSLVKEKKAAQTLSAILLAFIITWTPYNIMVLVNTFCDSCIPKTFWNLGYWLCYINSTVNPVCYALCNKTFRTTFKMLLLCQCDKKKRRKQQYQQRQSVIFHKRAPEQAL

| inhibition at 1 µM [1] [%] | IC50 [2] [nM] | percent of formoterol maximum response at 1 µM [3] [%] | EC50 [4] [nM] | β2 Intrinsic Activity [4] | Compound |
| --- | --- | --- | --- | --- | --- |
| 100 | 0.631 | 102 | 50.1 | 1.0 | O=C1COc2c(CCNCCN(C(=O)CCOCCc3cccc(CN4CCC5(CC4)CN(C(=O)c4ccc(Cl)s4)CCO5)c3)C3CCCCC3)ccc(O)c2N1 [Example 106, 3-(3-((4-(5-Chlorothiophene-2-carbonyl)-1-oxa-4,9-diazaspiro[5.5]undecan-9-yl)methyl)phenethoxy)-N-cyclohexyl-N-(2-(2-(5-hydroxy-3-oxo-3,4-dihydro-2H-benzo[b][1,4]oxazin-8-yl)ethylamino)ethyl)propanamide] |
| 100 | 0.158 | 93 | 126 | 0.6 | O=C1COc2c(CCNCCN(C(=O)CCOCCc3cccc(CN4CCC5(CC4)CN(C(=O)C4COc6ccccc6O4)CCO5)c3)C3CCCCC3)ccc(O)c2N1 (stereo not shown) [Example 115, N-Cyclohexyl-3-(3-((4-(2,3-dihydrobenzo[b][1,4]dioxine-2-carbonyl)-1-oxa-4,9-diazaspiro[5.5]undecan-9-yl)methyl)phenethoxy)-N-(2-(2-(5-hydroxy-3-oxo-3,4-dihydro-2H-benzo[b][1,4]oxazin-8-yl)ethylamino)ethyl)propanamide] |
| 100 | 2 | 84 | 158 | >0.9 | O=C1COc2c(CCNCCN(C(=O)CCOCCc3cccc(CN4CCC5(CC4)CN(C(=O)c4cnc6ccccc6n4)CCO5)c3)C3CCCCC3)ccc(O)c2N1 [Example 119, N-Cyclohexyl-N-(2-(2-(5-hydroxy-3-oxo-3,4-dihydro-2H-benzo[b][1,4]oxazin-8-yl)ethylamino)ethyl)-3-(3-((4-(quinoxaline-2-carbonyl)-1-oxa-4,9-diazaspiro[5.5]undecan-9-yl)methyl)phenethoxy)propanamide] |
| 99 | 1 | 125 |  |  | O=C1COc2c(CCNCCN(C(=O)CCOCCc3cccc(CN4CCC5(CC4)CN(C(=O)C(O)c4ccccc4Cl)CCO5)c3)C3CCCCC3)ccc(O)c2N1 (stereo not shown) [Example 128, 3-(3-((4-(2-(2-Chlorophenyl)-2-hydroxyacetyl)-1-oxa-4,9-diazaspiro[5.5]undecan-9-yl)methyl)phenethoxy)-N-cyclohexyl-N-(2-(2-(5-hydroxy-3-oxo-3,4-dihydro-2H-benzo[b][1,4]oxazin-8-yl)ethylamino)ethyl)propanamide] |
| 100 | 0.2 | 92 | 126 | 0.9 | Cc1csc(C(=O)N2CCOC3(CCN(Cc4cccc(CCOCCC(=O)N(CCNCCc5ccc(O)c6c5OCC(=O)N6)C5CCCCC5)c4)CC3)C2)c1 [Example 138, N-Cyclohexyl-N-(2-(2-(5-hydroxy-3-oxo-3,4-dihydro-2H-benzo[b][1,4]oxazin-8-yl)ethylamino)ethyl)-3-(3-((4-(4-methythiophene-2-carbonyl)-1-oxa-4,9-diazaspiro[5.5]undecan-9-yl)methyl)phenethoxy)propanamide] |
| 99 |  | 79 |  |  | CCCC(C)C(=O)N1CCOC2(CCN(Cc3cccc(CCOCCC(=O)N(CCNCCc4ccc(O)c5c4OCC(=O)N5)C4CCCCC4)c3)CC2)C1 (stereo not shown) [Example 160, N-Cyclohexyl-N-(2-(2-(5-hydroxy-3-oxo-3,4-dihydro-2H-benzo[b][1,4]oxazin-8-yl)ethylamino)ethyl)-3-(3-((4-(2-methylpentanoyl)-1-oxa-4,9-diazaspiro[5.5]undecan-9-yl)methyl)phenethoxy)propanamide] |
| 100 |  | 95 |  |  | O=C1COc2c(CCNCCN(C(=O)CCOCCc3cccc(CN4CCC5(CC4)CN(C(=O)c4ccc(F)cc4F)CCO5)c3)C3CCCCC3)ccc(O)c2N1 [Example 162, N-Cyclohexyl-3-(3-((4-(2,4-difluorobenzoyl)-1-oxa-4,9-diazaspiro[5.5]undecan-9-yl)methyl)phenethoxy)-N-(2-(2-(5-hydroxy-3-oxo-3,4-dihydro-2H-benzo[b][1,4]oxazin-8-yl)ethylamino)ethyl)propanamide] |
| 98 |  | 97 |  |  | O=C1COc2c(CCNCCN(C(=O)CCOCCc3cccc(CN4CCC5(CC4)CN(C(=O)c4c(F)cccc4F)CCO5)c3)C3CCCCC3)ccc(O)c2N1 [Example 163, N-Cyclohexyl-3-(3-((4-(2,6-difluorobenzoyl)-1-oxa-4,9-diazaspiro[5.5]undecan-9-yl)methyl)phenethoxy)-N-(2-(2-(5-hydroxy-3-oxo-3,4-dihydro-2H-benzo[b][1,4]oxazin-8-yl)ethylamino)ethyl)propanamide] |
| 100 |  | 96 |  |  | O=C1COc2c(CCNCCN(C(=O)CCOCCc3cccc(CN4CCC5(CC4)CN(C(=O)[C@H](O)c4ccccc4)CCO5)c3)C3CCCCC3)ccc(O)c2N1 [Example 166, (R)-N-Cyclohexyl-3-(3-((4-(2-hydroxy-2-phenylacetyl)-1-oxa-4,9-diazaspiro[5.5]undecan-9-yl)methyl)phenethoxy)-N-(2-(2-(5-hydroxy-3-oxo-3,4-dihydro-2H-benzo[b][1,4]oxazin-8-yl)ethylamino)ethyl)propanamide] |
| 92 |  | 103 |  |  | O=C1COc2c(CCNCCN(C(=O)CCOCCc3cccc(CN4CCC5(CC4)CN(C(=O)c4cccc6[nH]ccc46)CCO5)c3)C3CCCCC3)ccc(O)c2N1 [Example 168, 3-(3-((4-(1H-Indole-4-carbonyl)-1-oxa-4,9-diazaspiro[5.5]undecan-9-yl)methyl)phenethoxy)-N-cyclohexyl-N-(2-(2-(5-hydroxy-3-oxo-3,4-dihydro-2H-benzo[b][1,4]oxazin-8-yl)ethylamino)ethyl)propanamide] |
| 101 |  | 102 |  |  | O=C1COc2c(CCNCCN(C(=O)CCOCCc3cccc(CN4CCC5(CC4)CN(C(=O)Cc4ccccc4F)CCO5)c3)C3CCCCC3)ccc(O)c2N1 [Example 169, N-Cyclohexyl-3-(3-((4-(2-(2-fluorophenyl)acetyl)-1-oxa-4,9-diazaspiro[5.5]undecan-9-yl)methyl)phenethoxy)-N-(2-(2-(5-hydroxy-3-oxo-3,4-dihydro-2H-benzo[b][1,4]oxazin-8-yl)ethylamino)ethyl)propanamide] |
| 98 |  | 112 |  |  | CCOc1ccccc1CC(=O)N1CCOC2(CCN(Cc3cccc(CCOCCC(=O)N(CCNCCc4ccc(O)c5c4OCC(=O)N5)C4CCCCC4)c3)CC2)C1 [Example 170, N-Cyclohexyl-3-(3-((4-(2-(2-ethoxyphenyl)acetyl)-1-oxa-4,9-diazaspiro[5.5]undecan-9-yl)methyl)phenethoxy)-N-(2-(2-(5-hydroxy-3-oxo-3,4-dihydro-2H-benzo[b][1,4]oxazin-8-yl)ethylamino)ethyl)propanamide] |
| 96 |  | 94 |  |  | COC(C(=O)N1CCOC2(CCN(Cc3cccc(CCOCCC(=O)N(CCNCCc4ccc(O)c5c4OCC(=O)N5)C4CCCCC4)c3)CC2)C1)c1ccccc1 (stereo not shown) [Example 171, N-Cyclohexyl-N-(2-(2-(5-hydroxy-3-oxo-3,4-dihydro-2H-benzo[b][1,4]oxazin-8-yl)ethylamino)ethyl)-3-(3-((4-(2-methoxy-2-phenylacetyl)-1-oxa-4,9-diazaspiro[5.5]undecan-9-yl)methyl)phenethoxy)propanamide] |
| 91 |  | 94 |  |  | Cc1ccc2nc(C(=O)N3CCOC4(CCN(Cc5cccc(CCOCCC(=O)N(CCNCCc6ccc(O)c7c6OCC(=O)N7)C6CCCCC6)c5)CC4)C3)cn2c1 [Example 172, N-Cyclohexyl-N-(2-(2-(5-hydroxy-3-oxo-3,4-dihydro-2H-benzo[b][1,4]oxazin-8-yl)ethylamino)ethyl)-3-(3-((4-(6-methylimidazo[1,2-a]pyridine-2-carbonyl)-1-oxa-4,9-diazaspiro[5.5]undecan-9-yl)methyl)phenethoxy)propanamide] |
| 95 |  | 82 |  |  | COCCOc1ccc(C(=O)N2CCOC3(CCN(Cc4cccc(CCOCCC(=O)N(CCNCCc5ccc(O)c6c5OCC(=O)N6)C5CCCCC5)c4)CC3)C2)cc1 [Example 173, N-Cyclohexyl-N-(2-(2-(5-hydroxy-3-oxo-3,4-dihydro-2H-benzo[b][1,4]oxazin-8-yl)ethylamino)ethyl)-3-(3-((4-(4-(2-methoxyethoxy)benzoyl)-1-oxa-4,9-diazaspiro[5.5]undecan-9-yl)methyl)phenethoxy)propanamide] |
